The values that follow come from patent publication US12180187B2, “1-phenyl-5-azinylpyrazolyl-3-oxyalkyl acids and their use for controlling unwanted plant growth” (BAYER AKTIENGESELLSCHAFT, priority 2019, dated 2024).

In test [1] the test system is AMARE. In words: Pre-emergence action against AMARE, 1280 g/ha. It is filed as in vivo, Amaranthus retroflexus. Conditions: scored visually after about 3 weeks vs untreated controls (100% = plants have died). The method, boiled down: (§1)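 Visual % scoring, roughly 3 weeks post-application, against untreated controls; 100% means plants died. Treatment went onto the soil covering sown seeds (sandy loam), as aqueous suspension or emulsion plus 0.5% additive.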

Test [2] deals with POLCO. Put plainly: Pre-emergence action at 320 g/ha against POLCO. It is filed as in vivo, Fallopia convolvulus (Polygonum convolvulus). The note with it: visual scoring after about 3 weeks vs untreated controls. The essentials:
(§2)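 Weed and crop seeds sown in pots and covered with soil; WP or EC formulations sprayed pre-emergence onto the soil surface at 320 g/ha with 0.5% additive in 600 l/ha water. Kept in greenhouse; after about 3 weeks activity scored visually as % versus untreated controls (100% = plants dead, 0% = as control).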

Test [3] deals with POAAN. Put plainly: Post-emergence action against POAAN, 1.28 kg/ha. It is filed as in vivo, Poa annua. Conditions: dosage 1280 g/ha, visual rating about 3 weeks after treatment vs untreated controls. The method, boiled down: (§3)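 Weeds grown in sandy loam in a greenhouse were sprayed at the one-leaf stage, 2–3 weeks after sowing, with WP or EC formulations in water containing 0.5% additive at 600 L/ha. About 3 weeks later, damage was scored visually versus untreated controls (0% = like control, 100% = dead).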

The subject of test [4] is ALOMY. Put plainly: Pre-emergence action at 320 g/ha against ALOMY. It is filed as in vivo, Alopecurus myosuroides. Conditions: scored visually after about 3 weeks vs untreated controls (100% = plants have died). The method, boiled down:
as §2

In test [5] the test system is AMARE. Put plainly: Pre-emergence action at 320 g/ha against AMARE. Type of test: in vivo, Amaranthus retroflexus. Conditions: visual scoring after about 3 weeks vs untreated controls. The method, boiled down: as §2
Test [6] deals with ABUTH. Put plainly: Post-emergence action against ABUTH, 1.28 kg/ha. It is filed as in vivo, Abutilon theophrasti. The note with it: dosage 1280 g/ha, visual rating about 3 weeks after treatment vs untreated controls (100% = plants died). The essentials: as §3
Test [7] deals with DIGSA. In words: Pre-emergence action at 320 g/ha against DIGSA. Type of test: in vivo, Digitaria sanguinalis. Conditions: visual scoring after about 3 weeks vs untreated controls. The essentials: as §2
Test [8] relates to POAAN. In words: Pre-emergence action against POAAN, 1280 g/ha. It is filed as in vivo, Poa annua. Conditions: visual scoring after about 3 weeks vs untreated controls, 100% = plants have died, 0% = like control plants. The method, boiled down: as §1
Test [9] deals with MATIN. In words: Pre-emergence action against MATIN, 1280 g/ha. Type of test: in vivo, Tripleurospermum inodorum (Matricaria inodora). Conditions: scored visually after about 3 weeks vs untreated controls (100% = plants have died). The method, boiled down: as §1
The subject of test [10] is STEME. In words: Pre-emergence action against STEME, 1280 g/ha. Conditions: scored visually after about 3 weeks vs untreated controls (100% = plants have died). It is filed as in vivo, Stellaria media. The method, boiled down: as §1
Test [11] has as its system SETVI. In words: Pre-emergence action at 320 g/ha against SETVI. Conditions: visual scoring after about 3 weeks vs untreated controls. Type of test: in vivo, Setaria viridis. The essentials: as §2
Test [12] relates to ABUTH. In words: Pre-emergence action against ABUTH, 1280 g/ha. The note with it: scored visually after about 3 weeks vs untreated controls (100% = plants have died). It is filed as in vivo, Abutilon theophrasti. The method, boiled down: as §1
Test [13] has as its system SETVI. Put plainly: Pre-emergence action against SETVI, 1280 g/ha. Type of test: in vivo, Setaria viridis. The note with it: visual scoring after about 3 weeks vs untreated controls, 100% = plants have died, 0% = like control plants. The essentials:
as §1

The subject of test [14] is ECHCG. Put plainly: Pre-emergence action against ECHCG, 1280 g/ha. Conditions: visual scoring after about 3 weeks vs untreated controls, 100% = plants have died, 0% = like control plants. Type of test: in vivo, Echinochloa crus-galli. The method, boiled down:
as §1

Test [15] deals with STEME. Put plainly: Post-emergence action against STEME, 1.28 kg/ha. Type of test: in vivo, Stellaria media. Conditions: dosage 1280 g/ha, visual rating about 3 weeks after treatment vs untreated controls (100% = plants died). The essentials:
as §3

On to `COCCOC(=O)COc1nn(-c2ccccc2F)c(-c2ccc(F)nc2)c1Br` [VII-052], for which the “Pre-emergence action against AMARE” value in test [1] came out at 100%. The “Pre-emergence action against POLCO in %” value in [2] was 100%. Besides, the “Post-emergence action against POAAN” value in [3] is 100%. Besides, the “Pre-emergence action at 320 g/ha against ALOMY in %” value in test [4] was 100%. In [5], the “Pre-emergence action against AMARE in %” value was determined as 100%. The “Post-emergence action against ABUTH” value in test [6] is reported as 90%. Moreover, the “Pre-emergence action against DIGSA in %” value in test [7] turned out to be 100%. Also, the “Pre-emergence action against POAAN” value in [8] stood at 100%. Also, the “Pre-emergence action against MATIN” value in test [9] is given as 100%. Further, in test [10], the “Pre-emergence action against STEME” value turned out to be 100%. Further, the “Pre-emergence action against SETVI in %” value in test [11] came out at 100%. For the same compound, the “Pre-emergence action against ABUTH” value in test [12] was 100%. The “Pre-emergence action against SETVI” value in [13] came to 100%. The “Pre-emergence action against ECHCG” value in [14] is 100%. Also, the “Post-emergence action against STEME” value in test [15] turned out to be 100%.

Regarding `O=C(COc1nn(-c2ccccc2F)c(-c2ccc(F)nc2)c1Br)OCC1CCOC1` (stereo not drawn) [VII-091], in test [1], the “Pre-emergence action against AMARE” value is listed as 100%. In addition, in test [2], the “Pre-emergence action against POLCO in %” value came out at 100%. Also, in test [3], the “Post-emergence action against POAAN” value was 100%. For the same compound, in test [4], the “Pre-emergence action at 320 g/ha against ALOMY in %” value turned out to be 100%. Besides, the “Pre-emergence action against AMARE in %” value in test [5] stood at 100%. Also, the “Post-emergence action against ABUTH” value in [6] is 90%. In test [7], the “Pre-emergence action against DIGSA in %” value is listed as 100%. The “Pre-emergence action against POAAN” value in [8] is on record as 100%. Further, in test [9], the “Pre-emergence action against MATIN” value was 100%. Moreover, the “Pre-emergence action against STEME” value in test [10] was found to be 100%. The “Pre-emergence action against SETVI in %” value in [11] is on record as 100%. For the same compound, the “Pre-emergence action against ABUTH” value in test [12] was 90%. Besides, the “Pre-emergence action against SETVI” value in [13] came out at 100%. In test [14], the “Pre-emergence action against ECHCG” value was 100%. Moreover, in test [15], the “Post-emergence action against STEME” value is given as 90%.

`COC(=O)CCOC(=O)COc1nn(-c2ccccc2F)c(-c2ccc(F)nc2)c1Br` [VII-111]: in test [1], the “Pre-emergence action against AMARE” value was 100%. Also, the “Pre-emergence action against POLCO in %” value in test [2] was found to be 90%. For the same compound, in test [3], the “Post-emergence action against POAAN” value is on record as 100%. The “Pre-emergence action at 320 g/ha against ALOMY in %” value in [4] was determined as 100%. The “Pre-emergence action against AMARE in %” value in test [5] stood at 100%. In addition, the “Post-emergence action against ABUTH” value in test [6] came out at 90%. Moreover, in test [7], the “Pre-emergence action against DIGSA in %” value was found to be 100%. The “Pre-emergence action against POAAN” value in test [8] came out at 100%. Further, in test [9], the “Pre-emergence action against MATIN” value amounted to 100%. The “Pre-emergence action against STEME” value in test [10] stood at 100%. In addition, the “Pre-emergence action against SETVI in %” value in test [11] is 100%. In [12], the “Pre-emergence action against ABUTH” value is recorded as 90%. Besides, in test [13], the “Pre-emergence action against SETVI” value came out at 100%. In test [14], the “Pre-emergence action against ECHCG” value came out at 100%. For the same compound, the “Post-emergence action against STEME” value in test [15] is recorded as 100%.

As for `COC(=O)[C@@H](C)Oc1nn(-c2cc(F)ccc2F)c(-c2cncc(F)c2)c1C#N` [VII-147], the “Pre-emergence action against AMARE” value in test [1] was determined as 100%. The “Pre-emergence action against POLCO in %” value in test [2] worked out at 100%. Further, in test [3], the “Post-emergence action against POAAN” value is reported as 100%. Also, the “Pre-emergence action at 320 g/ha against ALOMY in %” value in test [4] worked out at 100%. For the same compound, the “Pre-emergence action against AMARE in %” value in test [5] was 100%. Also, in test [6], the “Post-emergence action against ABUTH” value is 90%. Moreover, in test [7], the “Pre-emergence action against DIGSA in %” value came out at 100%. Also, the “Pre-emergence action against POAAN” value in test [8] is listed as 100%. Further, the “Pre-emergence action against MATIN” value in test [9] came to 100%. Besides, in test [10], the “Pre-emergence action against STEME” value worked out at 100%. Further, the “Pre-emergence action against SETVI in %” value in [11] turned out to be 100%. In addition, the “Pre-emergence action against ABUTH” value in test [12] was 90%. For the same compound, the “Pre-emergence action against SETVI” value in test [13] was 100%. Further, the “Pre-emergence action against ECHCG” value in test [14] was determined as 100%. In addition, the “Post-emergence action against STEME” value in test [15] came out at 100%.
